Values after ≈ are worked out from the molar mass of the structure shown. Active and inactive are the calls of the source. No cut-off for these calls is given here.
Tests used:
Acinetobacter baumannii [1] = experiment: Antibacterial activity against Acinetobacter baumannii ATCC BAA-1605 at 0.78 to 100 uM after 24 hrs by broth microdilution method; format: functional, organism-based; settings: dose microM 0.78-100, time 24.0 hrs
Staphylococcus aureus [2] = experiment: Antibacterial activity against […] Staphylococcus aureus ATCC 700699 after 24 hrs by broth microdilution method; format: functional
[3] = system: Mycobacterium tuberculosis; experiment: Antibacterial activity against Mycobacterium tuberculosis H37Rv at 0.78 to 100 uM after 5 days by resazurin dye based fluorescence assay; format: functional, organism-based; settings: dose microM 0.78-100, time 5.0 day
Staphylococcus aureus [4] = experiment: Antibacterial activity against methicillin susceptible Staphylococcus aureus ATCC 25923 at 0.78 to 100 uM after 24 hrs by broth microdilution method; format: functional, organism-based; settings: dose microM 0.78-100, time 24.0 hrs
Enterococcus faecium [5] = experiment: Antibacterial activity against vancomycin-resistant Enterococcus faecium ATCC 35667 at 0.78 to 100 uM after 24 hrs by broth microdilution method; format: functional, organism-based; settings: dose microM 0.78-100, time 24.0 hrs
Enterococcus faecium [6] = experiment: Antibacterial activity against vancomycin-resistant Enterococcus faecium ATCC 700221 at 0.78 to 100 uM after 24 hrs by broth microdilution method; format: functional, organism-based; settings: dose microM 0.78-100, time 24.0 hrs
Enterococcus faecalis [7] = experiment: Antibacterial activity against Enterococcus faecalis ATCC 29212 at 0.78 to 100 uM after 24 hrs by broth microdilution method; format: functional, organism-based; settings: dose microM 0.78-100, time 24.0 hrs
Enterococcus faecalis [8] = experiment: Antibacterial activity against Enterococcus faecalis ATCC 51299 at 0.78 to 100 uM after 24 hrs by broth microdilution method; format: functional, organism-based; settings: dose microM 0.78-100, time 24.0 hrs
Escherichia coli = experiment: Antimicrobial activity against Escherichia coli ATCC BAA 2469 after 24 hrs by broth microdilution assay; format: functional
Pseudomonas aeruginosa = experiment: Antibacterial activity against Pseudomonas aeruginosa ATCC 27853 measured after 24 hrs by broth microdilution method; format: functional
Klebsiella pneumoniae = experiment: Antibacterial activity against Klebsiella pneumoniae ATCC 700603 after 24 hrs by broth microdilution method; format: functional
Acinetobacter baumannii [9] = experiment: Antibacterial activity against Acinetobacter baumannii ATCC BAA-1605 after 24 hrs by broth microdilution method; format: functional
Staphylococcus aureus [10] = experiment: Antibacterial activity against methicillin susceptible Staphylococcus aureus ATCC 25923 after 24 hrs by broth microdilution method; format: functional
Cell membrane [11] = experiment: Induction of cell membrane permeabilization in GFP-expressing Staphylococcus aureus ATCC 700699 assessed as increase in cellular ATP leakage at 5 fold MIC measured after 0.5 hrs by Bactiter-glo assay; format: subcellular
Cell membrane [12] = experiment: Induction of cell membrane permeabilization in methicillin resistant Staphylococcus aureus ATCC 700699 measured at 5 mins interval for 2 hrs by propidium iodide staining based fluorescence assay; format: subcellular
Staphylococcus aureus [13] = experiment: Antibacterial activity against vancomycin-sensitive Staphylococcus aureus T144 infected in Balb/c mouse assessed as reduction in bacterial burden at 20 mg/kg applied topically measured after 12 days by colony counting method; format: functional, organism-based; settings: time 12.0 day
Staphylococcus aureus [14] = experiment: Antibacterial activity against vancomycin-sensitive Staphylococcus aureus T144 infected in Balb/c mouse peritonitis-sepsis model assessed as increase in survival at 20 mg/kg, ip measured for 48 hrs; format: functional, organism-based
Staphylococcus aureus [15] = experiment: Antibacterial activity against vancomycin-sensitive Staphylococcus aureus T144 infected in Balb/c mouse assessed as increase in wound healing at 20 mg/kg applied topically measured daily for 12 days by microscopic analysis; format: functional, organism-based; settings: time 12.0 day
Staphylococcus aureus [16] = experiment: Antibacterial activity against methicillin-resistant pyruvate kinase deficient Staphylococcus aureus USA300 LAC at 0.15 to 25 uM incubated for 24 hrs under low pyruvate containing medium by resazurin dye based fluorescence assay; format: functional, organism-based; settings: dose microM 0.15-25, time 24.0 hrs
[17] = Selectivity index, ratio of IC50 for cytotoxicity against human MRC5 cells to MIC90 for antibacterial activity against […] Staphylococcus aureus ATCC 700699; format: toxicity, cell-based; settings: read-out: Selectivity Index
Staphylococcus aureus [18] = experiment: Antibacterial activity against methicillin-resistant Staphylococcus aureus USA300 LAC at 0.15 to 25 uM incubated for 24 hrs under low pyruvate containing medium by resazurin dye based fluorescence assay; format: functional, organism-based; settings: dose microM 0.15-25, time 24.0 hrs
Staphylococcus aureus [19] = experiment: Antibacterial activity against methicillin-resistant Staphylococcus aureus USA300 LAC at 0.15 to 25 uM incubated for 24 hrs under low glucose medium by resazurin dye based fluorescence assay; format: functional, organism-based; settings: dose microM 0.15-25, time 24.0 hrs
THP-1 = experiment: Cytotoxicity against human THP-1 cells assessed as reduction in cell viability at >=12.5 uM measured after 48 hrs by resazurin dye based fluorescence assay; settings: thp-1, 48 h
[20] = Selectivity index, ratio of IC50 for cytotoxicity against human THP-1 cells to MIC90 for antibacterial activity against […] Staphylococcus aureus ATCC 700699; format: toxicity, cell-based; settings: read-out: Selectivity Index
Staphylococcus aureus [21] = experiment: Bactericidal activity against […] Staphylococcus aureus ATCC 700699 assessed as reduction in bacterial viability at 5 fold MIC incubated for 6 hrs by time kill assay relative to control; format: functional
Staphylococcus aureus [22] = experiment: Bactericidal activity against […] Staphylococcus aureus ATCC 700699 assessed as colony forming units at 5 fold MIC measured after 24 hrs by time kill assay; format: functional
MRC5 = experiment: Cytotoxicity against human MRC5 cells assessed as reduction in cell viability at >=12.5 uM measured after 48 hrs by resazurin dye based fluorescence assay; settings: mrc5, 48 h

c1ccc2c(-c3cnc(-c4c[nH]c5ccccc45)nc3)c[nH]c2c1
Activity (Acinetobacter baumannii [1]): inactive | MIC90 (Staphylococcus aureus [2]): 12.5 µM (≈ 3.88 µg/mL) | Activity [3]: inactive

c1cc(-c2c[nH]c3ccccc23)nc(-c2c[nH]c3ccccc23)c1
Activity (Acinetobacter baumannii [1]): inactive | MIC90 (Staphylococcus aureus [2]): > 100 µM | Activity [3]: inactive

Oc1ccc2[nH]cc(-c3cnc(-c4c[nH]c5ccc(O)cc45)cn3)c2c1
Activity (Staphylococcus aureus [4]): inactive | Activity (Enterococcus faecium [5]): inactive | Activity (Acinetobacter baumannii [1]): inactive | Activity (Enterococcus faecium [6]): inactive | Activity (Enterococcus faecalis [7]): inactive | MIC90 (Staphylococcus aureus [2]): > 100 µM | Activity [3]: inactive | Activity (Enterococcus faecalis [8]): inactive

COc1ccc2[nH]cc(-c3cnc(-c4c[nH]c5ccc(OC)cc45)nc3)c2c1
Activity (Staphylococcus aureus [4]): inactive | Activity (Enterococcus faecium [5]): inactive | Activity (Acinetobacter baumannii [1]): inactive | Activity (Enterococcus faecium [6]): inactive | Activity (Enterococcus faecalis [7]): inactive | MIC90 (Staphylococcus aureus [2]): 50 µM (≈ 18.5 µg/mL) | Activity [3]: inactive | Activity (Enterococcus faecalis [8]): inactive

COLISTIN
MIC (Escherichia coli): 0.78 µM | MIC (Pseudomonas aeruginosa): 0.39 µM | MIC (Klebsiella pneumoniae): 1.56 µM | MIC (Acinetobacter baumannii [9]): 0.78 µM

Brc1cc2[nH]cc(-c3cnc(-c4c[nH]c5cc(Br)c(Br)cc45)cn3)c2cc1Br
Activity (Acinetobacter baumannii [1]): inactive | MIC (Staphylococcus aureus [10]): 1.56 µM (≈ 0.976 µg/mL) | MIC90 (Staphylococcus aureus [2]): 1.56 µM (≈ 0.976 µg/mL) | Activity [3]: inactive

COc1c(N2C[C@@H]3CCCN[C@@H]3C2)c(F)cc2c(=O)c(C(=O)O)cn(C3CC3)c12
Activity (Cell membrane [11]): inactive | Activity (Cell membrane [12]): inactive

COc1ccc2[nH]cc(-c3cccc(-c4c[nH]c5ccc(OC)cc45)n3)c2c1
Activity (Acinetobacter baumannii [1]): inactive | MIC90 (Staphylococcus aureus [2]): 12.5 µM (≈ 4.62 µg/mL) | Activity [3]: inactive

c1ccc2c(-c3cnc(-c4c[nH]c5ccccc45)cn3)c[nH]c2c1
Activity (Acinetobacter baumannii [1]): inactive | MIC90 (Staphylococcus aureus [2]): > 100 µM | Activity [3]: inactive

Fc1ccc2[nH]cc(-c3cnc(-c4c[nH]c5ccc(F)cc45)cn3)c2c1
Activity (Acinetobacter baumannii [1]): inactive | MIC90 (Staphylococcus aureus [2]): > 100 µM | Activity [3]: inactive

CN[C@H](CC(C)C)C(=O)N[C@H]1C(=O)N[C@@H](CC(N)=O)C(=O)N[C@H]2C(=O)N[C@H]3C(=O)N[C@H](C(=O)N[C@H](C(=O)O)c4cc(O)cc(O)c4-c4cc3ccc4O)[C@H](O)c3ccc(c(Cl)c3)Oc3cc2cc(c3O[C@@H]2O[C@H](CO)[C@@H](O)[C@H](O)[C@H]2O[C@H]2C[C@](C)(N)[C@H](O)[C@H](C)O2)Oc2ccc(cc2Cl)[C@H]1O
Activity (Staphylococcus aureus [13]): Active | Activity (Staphylococcus aureus [14]): Active | Activity (Staphylococcus aureus [15]): Active

Clc1ccc2[nH]cc(-c3ccc(-c4c[nH]c5ccc(Cl)cc45)nn3)c2c1
Activity (Staphylococcus aureus [16]): Active | selectivity ratio [17]: 8 | Activity (Staphylococcus aureus [18]): Active | Activity (Staphylococcus aureus [19]): Active | Activity (Acinetobacter baumannii [1]): inactive | MIC90 (Staphylococcus aureus [2]): 0.78 µM (≈ 0.296 µg/mL) | Activity (THP-1): Toxic | selectivity ratio [20]: 8 | Activity [3]: inactive | fold change (FC) (Staphylococcus aureus [21]): 100 | Activity (Staphylococcus aureus [22]): <10 CFU/ml | Activity (MRC5): Toxic
